The record followed here is patent publication US6123916A, “Therapeutic use of somatostatin peptides” (priority 1990, dated 2000).

This assay concerns GH-release (serum GH-level). In words: Depression of serum GH-levels in male rats 1 hour after s.c. administration (radio-immuno-assay). Format: in vivo, rat. To be noted: blood taken 1 hour after administration. The method, then: This test is carried out employing male rats. The test-substance is administered at varying, logarithmically staggered doses employing at least 5 rats per dose. 1 hour after s.c. administration of the test substance blood is taken. The determination of the blood serum GH-level is effected by radio-immuno-assay.

As for `C[C@H](N)C(=O)NCC(=O)N[C@H]1CSSC[C@@H](C(=O)O)NC(=O)[C@H](CO)NC(=O)[C@H]([C@@H](C)O)NC(=O)[C@H](Cc2ccccc2)NC(=O)[C@H]([C@@H](C)O)NC(=O)[C@H](CCCCN)NC(=O)[C@H](Cc2c[nH]c3ccccc23)NC(=O)[C@H](Cc2ccccc2)NC(=O)[C@H](Cc2ccccc2)NC(=O)[C@H](CC(N)=O)NC(=O)[C@H](CCCCN)NC1=O` [natural somatostatin, somatostatin], the “ID50 (amount of compound required to lower the GH content by 50% compared with untreated control animals)” value turned out to be 0.95 mg/kg.
